Assay results as given in article PMC9133015 (Nature Communications, 2022).
Values joined by “and” are separate entries in the source; they are usually repeats but may differ in a detail not shown here. Equal entries are not always repeated. Where two headings read alike, the source gives them in different places.

Target: T1, DYRK2 (Homo sapiens, UniProt Q92630)
T1 construct: purchased Reaction Biology Corporation (assay service)
T1 sequence (Q92630 1-601): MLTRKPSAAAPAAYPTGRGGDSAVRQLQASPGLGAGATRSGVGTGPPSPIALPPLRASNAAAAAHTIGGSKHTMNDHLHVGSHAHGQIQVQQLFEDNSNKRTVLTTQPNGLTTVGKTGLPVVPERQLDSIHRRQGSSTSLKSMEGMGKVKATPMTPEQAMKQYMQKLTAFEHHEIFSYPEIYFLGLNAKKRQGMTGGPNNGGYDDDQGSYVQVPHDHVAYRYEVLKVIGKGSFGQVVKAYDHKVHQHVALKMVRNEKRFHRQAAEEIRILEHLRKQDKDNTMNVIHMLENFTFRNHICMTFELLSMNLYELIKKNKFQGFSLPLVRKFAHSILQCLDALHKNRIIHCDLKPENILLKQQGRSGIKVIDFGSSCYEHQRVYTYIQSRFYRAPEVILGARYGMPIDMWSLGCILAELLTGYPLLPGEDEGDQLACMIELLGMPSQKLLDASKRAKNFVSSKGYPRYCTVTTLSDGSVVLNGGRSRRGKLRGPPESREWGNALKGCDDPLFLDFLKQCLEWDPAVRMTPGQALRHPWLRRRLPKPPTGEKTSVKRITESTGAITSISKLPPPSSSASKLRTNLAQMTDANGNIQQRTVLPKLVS
Assay: DYRKs kinase activity assay (33P-ATP, DYRKtide substrate): DYRK2
Assay type: biochemical
Conditions: for inhibition at 0.00152416 µM / inhibition at 0.0137174 µM / inhibition at 0.0411523 µM / inhibition at 0.123457 µM / inhibition at 0.37037 µM / inhibition at 1.11111 µM / inhibition at 3.33333 µM / inhibition at 10 µM: read-out: % Inhibition

[1] = DYRK2 kinase, Conc. 0.000508053 µM, duplicate values
[2] = DYRK2 kinase, Conc. 0.00152416 µM, duplicate values
[3] = DYRK2 kinase, Conc. 0.00457247 µM, duplicate values
[4] = DYRK2 kinase, Conc. 0.0137174 µM, duplicate values
[5] = DYRK2 kinase, Conc. 0.0411523 µM, duplicate values
[6] = DYRK2 kinase, Conc. 0.123457 µM, duplicate values
[7] = DYRK2 kinase, Conc. 0.37037 µM, duplicate values
[8] = DYRK2 kinase, Conc. 1.11111 µM, duplicate values
[9] = DYRK2 kinase, Conc. 3.33333 µM, duplicate values
[10] = DYRK2 kinase, Conc. 10 µM, duplicate values
[11] = Supplementary Table 1, read-out: IC50 (μM), DYRK2 kinase

| Structure (SMILES) | % Inhibition [1] | inhibition at 0.00152416 µM [2] [%] | % Inhibition [3] | inhibition at 0.00457247 µM [3] [%] | inhibition at 0.0137174 µM [4] [%] | inhibition at 0.0411523 µM [5] [%] | % Inhibition [6] | inhibition at 0.123457 µM [6] [%] | inhibition at 0.37037 µM [7] [%] | % Inhibition [8] | inhibition at 1.11111 µM [8] [%] | % Inhibition [9] | inhibition at 3.33333 µM [9] [%] | % Inhibition [10] | inhibition at 10 µM [10] [%] | % Inhibition [2] | % Inhibition [4] | % Inhibition [5] | % Inhibition [7] | IC50 [11] [µM] | further results |
| --- | --- | --- | --- | --- | --- | --- | --- | --- | --- | --- | --- | --- | --- | --- | --- | --- | --- | --- | --- | --- | --- |
| CCN1CCN(C(=O)c2cnc(Nc3ncc(F)c(-c4ccc5ncsc5c4)n3)nc2)CC1 [Compound 22] | -2.89% | 0.87 | 2.13% | 2.31 | 3.91 | 13.2 | 26.76% | 25 | 35.1 | 58.80% | 58.5 | 75.98% | 76.2 | 87.41% | 87.2 |  |  |  |  |  | IC50 (read-out: DYRK2 IC50): 0.697 µM |
| CC(=NNc1nc2c(c(=O)n(Cc3ccccc3)c(=O)n2C)n1Cc1ccccc1)c1ccccc1 [Compound 5] | 1.24% and 7.59% |  | 11.00% and 16.72% |  |  |  | 2.54% and 8.81% |  |  | 17.84% and 23.14% |  | 28.55% and 33.16% |  | 29.52% and 31.99% |  | -1.11% and 5.39% | 2.77% and 9.02% | 5.65% and 11.72% | 4.47% and 10.61% | > 10 |  |
| CCOC(=O)CC1=NN(c2ccccc2)C(=O)C1=c1sc(=C2Sc3ccccc3N2C)c(=O)n1CC [Compound 6] | -4.08% and 2.50% |  | 3.31% and 7.66% |  |  |  | 2.56% and 6.98% |  |  | -1.20% and 3.57% |  | 2.35% and 4.46% |  | 7.66% and 11.60% |  | 1.60% and 6.11% | 5.42% and 7.24% | -2.71% and 2.20% | 3.14% and 5.17% | > 10 |  |
| CCN1CCN(Cc2ccc(Nc3ncc(F)c(-c4ccc5ncsc5c4)n3)nc2)CC1 [Compound 16] | 0.29% and 3.35% |  | 1.68% and 3.59% |  | 6.53 | 23.1 | 48.52% | 47.2 | 64.2 | 68.60% | 68.6 | 73.48% | 73.6 | 77.29% | 76.9 | -2.64% and 1.62% | 8.22% | 26.26% | 63.31% |  |  |
| COc1ccc(C2CC(c3ccc(Cl)cc3)=NN2c2ccc(C=NNc3ccccc3)cc2)cc1 (stereo not drawn) [Compound 3] | 1.91% and 4.22% |  | 2.63% and 4.93% |  |  |  | 10.47% and 12.60% |  |  | 20.14% and 19.70% |  | 22.94% and 20.08% |  | 22.88% and 24.74% |  | 6.35% and 8.58% | 8.54% and 10.71% | 6.26% and 8.49% | 12.78% and 14.86% | > 10 |  |
| CC(C)N1CCN(C(=O)c2ccc(Nc3ncc(F)c(-c4ccc5nc(N(C)C)sc5c4)n3)nc2)CC1 [Compound 25] | 4.24% and 12.86% | 14 | 28.06% | 27.4 | 44.6 | 69.6 | 84.14% | 84.5 | 93.3 | 95.77% | 98 | 95.36% | 94.3 | 95.58% | 96.2 | 17.49% | 45.74% | 67.90% | 92.83% |  | DYRK2 inhibitory activity (in words) (structural optimization of lead 12): further improved DYRK2 inhibitory activity |
| Cl.Fc1cnc(Nc2ccc(CN3CCNCC3)cn2)nc1-c1ccc2ncsc2c1 [Compound 18] |  | -1.56 |  | -2.27 | 9.69 | 19 | 36.98% | 36.4 | 56 | 75.32% | 75.1 | 88.49% | 88.2 | 94.11% | 93.9 |  | 12.10% | 21.24% | 58.36% |  | inhibition at 0.000508053 µM [1]: -3.69% |
| Cn1c(=O)c2ncn(CC(=O)Nc3ccc4oc(-c5ccc(Cl)cc5Cl)nc4c3)c2n(C)c1=O [Compound 10] | -7.03% and -8.01% |  | -3.26% and -1.51% |  |  |  | 0.34% and -3.30% |  |  | 15.95% and 17.31% |  | 6.96% and 8.47% |  | 22.24% and 25.76% |  | -4.24% and -5.18% | -9.75% and -7.91% | -10.96% and -9.20% | 1.49% and 3.01% | > 10 |  |
